ChEMBL document CHEMBL3885861, “Open TG-GATES”

Species on record: Rattus norvegicus
Experiment: Open TG-GATES - Regimen: Single
Assay type: toxicity, organism-based, Sprague-Dawley
Set-up: regimen Single, gender Male, age 6 weeks
Details: in vivo, po, 300 mg/kg, route gavage, dose level Middle; for APTT / Bas / Eos / Fbg / Hb / Ht / Lym / MCH / MCHC / MCV / Mono / Neu / PT / Plat / RBC / Ret / WBC: tissue Blood; for KIDNEY_L / KIDNEY_R / KIDNEY_TOTAL: tissue Kidney; for LIVER: tissue Liver; for A/G / ALP / ALT / AST / BUN / CRE / Ca / Cl / DBIL / GLC / IP / K / LDH / Na / PL / RALB / TBIL / TC / TG / TP / gamma-GTP: tissue Plasma

CCCCNC(=O)NS(=O)(=O)c1ccc(C)cc1 [TOLBUTAMIDE]
TERMINAL_BW (3 h): 202.7 g | APTT (3 h): 16.1 s | Bas (3 h): 0% | Eos (3 h): 1% | Fbg (3 h): 308.4 mg/dL | Hb (3 h): 13.7 g/dL | Ht (3 h): 42.4% | Lym (3 h): 75.2% | MCH (3 h): 20.5 pg | MCHC (3 h): 32.3% | MCV (3 h): 63.5 fL | Mono (3 h): 3% | Neu (3 h): 20.4% | PT (3 h): 12.9 s | Plat (3 h): 121.4 x10_4/uL | RBC (3 h): 667.6 x10_4/ul | Ret (3 h): 9% | WBC (3 h): 75.7 x10_2/uL | KIDNEY_L (3 h): 0.9 g | KIDNEY_R (3 h): 0.9 g | KIDNEY_TOTAL (3 h): 1.8 g | LIVER (3 h): 8.8 g | A/G (3 h): 0.9 | ALP (3 h): 1501.4 IU/L | ALT (3 h): 42 IU/L | AST (3 h): 75 IU/L | BUN (3 h): 11.2 mg/dL | CRE (3 h): 0.2 mg/dL | Ca (3 h): 10.8 mg/dL | Cl (3 h): 107 meq/L | DBIL (3 h): 0.008 mg/dL | GLC (3 h): 148 mg/dL | IP (3 h): 8.4 mg/dL | K (3 h): 4.1 meq/L | LDH (3 h): 59.6 IU/L | Na (3 h): 141 meq/L | PL (3 h): 135.6 mg/dL | RALB (3 h): 2.6 g/dL | TBIL (3 h): 0.052 mg/dL | TC (3 h): 76.6 mg/dL | TG (3 h): 71.8 mg/dL | TP (3 h): 5.5 g/dL | gamma-GTP (3 h): 1 IU/L | TERMINAL_BW (6 h): 203.4 g | APTT (6 h): 17.5 s | Bas (6 h): 0.2% | Eos (6 h): 1% | Fbg (6 h): 295 mg/dL | Hb (6 h): 13.9 g/dL | Ht (6 h): 42.5% | Lym (6 h): 75.8% | MCH (6 h): 21.4 pg | MCHC (6 h): 32.7% | MCV (6 h): 65.5 fL | Mono (6 h): 2.6% | Neu (6 h): 20.4% | PT (6 h): 13.1 s | Plat (6 h): 119.3 x10_4/uL | RBC (6 h): 650 x10_4/ul | Ret (6 h): 9% | WBC (6 h): 68.2 x10_2/uL | KIDNEY_L (6 h): 0.9 g | KIDNEY_R (6 h): 0.9 g | KIDNEY_TOTAL (6 h): 1.8 g | LIVER (6 h): 8.5 g | A/G (6 h): 0.9 | ALP (6 h): 1415.4 IU/L | ALT (6 h): 47.2 IU/L | AST (6 h): 81.8 IU/L | BUN (6 h): 11.6 mg/dL | CRE (6 h): 0.2 mg/dL | Ca (6 h): 11 mg/dL | Cl (6 h): 106.6 meq/L | DBIL (6 h): 0.006 mg/dL | GLC (6 h): 134.8 mg/dL | IP (6 h): 9.5 mg/dL | K (6 h): 3.8 meq/L | LDH (6 h): 54 IU/L | Na (6 h): 141.4 meq/L | PL (6 h): 126.6 mg/dL | RALB (6 h): 2.6 g/dL | TBIL (6 h): 0.058 mg/dL | TC (6 h): 66.6 mg/dL | TG (6 h): 59.2 mg/dL | TP (6 h): 5.4 g/dL | gamma-GTP (6 h): 1.2 IU/L | TERMINAL_BW (9 h): 200 g | APTT (9 h): 17.4 s | Bas (9 h): 0% | Eos (9 h): 1.2% | Fbg (9 h): 324 mg/dL | Hb (9 h): 13.7 g/dL | Ht (9 h): 41.4% | Lym (9 h): 69% | MCH (9 h): 20.7 pg | MCHC (9 h): 32.9% | MCV (9 h): 62.9 fL | Mono (9 h): 2.4% | Neu (9 h): 27% | PT (9 h): 13.4 s | Plat (9 h): 129.6 x10_4/uL | RBC (9 h): 659 x10_4/ul | Ret (9 h): 8.8% | WBC (9 h): 81.6 x10_2/uL | KIDNEY_L (9 h): 0.9 g | KIDNEY_R (9 h): 0.9 g | KIDNEY_TOTAL (9 h): 1.8 g | LIVER (9 h): 7.9 g | A/G (9 h): 0.9 | ALP (9 h): 1449.6 IU/L | ALT (9 h): 40.4 IU/L | AST (9 h): 71.8 IU/L | BUN (9 h): 9.6 mg/dL | CRE (9 h): 0.2 mg/dL | Ca (9 h): 10.8 mg/dL | Cl (9 h): 106.4 meq/L | DBIL (9 h): 0.004 mg/dL | GLC (9 h): 136.6 mg/dL | IP (9 h): 9.9 mg/dL | K (9 h): 4 meq/L | LDH (9 h): 62 IU/L | Na (9 h): 142 meq/L | PL (9 h): 127.2 mg/dL | RALB (9 h): 2.6 g/dL | TBIL (9 h): 0.064 mg/dL | TC (9 h): 69.4 mg/dL | TG (9 h): 41.6 mg/dL | TP (9 h): 5.4 g/dL | gamma-GTP (9 h): 1 IU/L | TERMINAL_BW (24 h): 218.5 g | APTT (24 h): 16.4 s | Bas (24 h): 0.2% | Eos (24 h): 1% | Fbg (24 h): 314.2 mg/dL | Hb (24 h): 13.3 g/dL | Ht (24 h): 40.4% | Lym (24 h): 76.6% | MCH (24 h): 20.9 pg | MCHC (24 h): 33% | MCV (24 h): 63.5 fL | Mono (24 h): 3.6% | Neu (24 h): 18% | PT (24 h): 12.9 s | Plat (24 h): 125 x10_4/uL | RBC (24 h): 636.8 x10_4/ul | Ret (24 h): 8% | WBC (24 h): 102.5 x10_2/uL | KIDNEY_L (24 h): 0.9 g | KIDNEY_R (24 h): 0.9 g | KIDNEY_TOTAL (24 h): 1.9 g | LIVER (24 h): 10.3 g | A/G (24 h): 0.9 | ALP (24 h): 1549.2 IU/L | ALT (24 h): 45 IU/L | AST (24 h): 72.2 IU/L | BUN (24 h): 14.2 mg/dL | CRE (24 h): 0.2 mg/dL | Ca (24 h): 11.1 mg/dL | Cl (24 h): 105 meq/L | DBIL (24 h): 0.008 mg/dL | GLC (24 h): 180.2 mg/dL | IP (24 h): 8.5 mg/dL | K (24 h): 4 meq/L | LDH (24 h): 83 IU/L | Na (24 h): 141.2 meq/L | PL (24 h): 150.2 mg/dL | RALB (24 h): 2.5 g/dL | TBIL (24 h): 0.062 mg/dL | TC (24 h): 81.8 mg/dL | TG (24 h): 85 mg/dL | TP (24 h): 5.4 g/dL | gamma-GTP (24 h): 1 IU/L
